# Counter-ions that a name gives are not always drawn.
# Target: T1, human hNET (Homo sapiens, UniProt P23975)
# T1 construct: expressed in transfected cells; host or cells: MDCK (MDCK-Net6)
# Experiment: Norepinephrine (NE) uptake assay in MDCK-Net6 cells
# Type: cell-based
# Settings: [3H]NE uptake; for EC50: MDCK-Net6 cells stably transfected with hNET; for inhibition at 1 µM: MDCK-Net6 cells, read-out: hNET Percentage inhibition at 1 μM
# Method: Cells were plated at 300,000/T75 flask and cells were split twice weekly. […] Cells were plated at 250,000 cells/T75 flask and split twice weekly.
# Norepinephrine (NE) Uptake Assay
# On day 1, cells were plated at 3,000 cells/well in growth medium and maintained in a cell incubator (37° C., 5% CO2). On day 2, growth medium was replaced with 200 μl of assay buffer (25 mM HEPES; 120 mM NaCl; 5 mM KCl; 2.5 mM CaCl2; 1.2 mM MgSO4; 2 mg/ml glucose (pH 7.4, 37° C.)) containing 0.2 mg/ml ascorbic acid and 10 μM pargyline. Plates containing cells with 200 μl of assay buffer were equilibrated for 10 minutes at 37° C. prior to addition of compounds. A stock solution of desipramine was prepared in DMSO (10 mM) and delivered to triplicate wells containing cells for a final test concentration of 1 μM. Data from these wells were used to define non-specific NE uptake (minimum NE uptake). Test compounds were prepared in DMSO (10 mM) and diluted in assay buffer according to test range (1 to 10,000 nM). Twenty-five microliters of assay buffer (maximum NE uptake) or test compound were added directly to triplicate wells containing cells in 200 μl of assay buffer. The cells in assay buffer with test compounds were incubated for 20 minutes at 37° C. […] The reaction was terminated by decanting the supernatant from the plate. The plates containing cells were washed twice with 200 μl assay buffer (37° C.) to remove free radioligand. The plates were then inverted, left to dry for 2 minutes, then reinverted and air-dried for an additional 10 minutes. […] After cell lysis, 75 μl of scintillation cocktail was added to each well and the plates were sealed with film tape. The plates were returned to the shake table and vigorously shaken for a minimum of 10 minutes to ensure adequate partitioning of organic and aqueous solutions. The plates were counted in a Wallac Microbeta counter (PerkinElmer) to collect the raw cpm data.
# For each experiment, a data stream of cpm values collected from the Wallac Microbeta counter was downloaded to a Microsoft Excel statistical application program. Calculations of EC50 values were made using the transformed-both-sides logistic dose response program written by Wyeth Biometrics Department.
# T1 sequence (P23975 whole entry): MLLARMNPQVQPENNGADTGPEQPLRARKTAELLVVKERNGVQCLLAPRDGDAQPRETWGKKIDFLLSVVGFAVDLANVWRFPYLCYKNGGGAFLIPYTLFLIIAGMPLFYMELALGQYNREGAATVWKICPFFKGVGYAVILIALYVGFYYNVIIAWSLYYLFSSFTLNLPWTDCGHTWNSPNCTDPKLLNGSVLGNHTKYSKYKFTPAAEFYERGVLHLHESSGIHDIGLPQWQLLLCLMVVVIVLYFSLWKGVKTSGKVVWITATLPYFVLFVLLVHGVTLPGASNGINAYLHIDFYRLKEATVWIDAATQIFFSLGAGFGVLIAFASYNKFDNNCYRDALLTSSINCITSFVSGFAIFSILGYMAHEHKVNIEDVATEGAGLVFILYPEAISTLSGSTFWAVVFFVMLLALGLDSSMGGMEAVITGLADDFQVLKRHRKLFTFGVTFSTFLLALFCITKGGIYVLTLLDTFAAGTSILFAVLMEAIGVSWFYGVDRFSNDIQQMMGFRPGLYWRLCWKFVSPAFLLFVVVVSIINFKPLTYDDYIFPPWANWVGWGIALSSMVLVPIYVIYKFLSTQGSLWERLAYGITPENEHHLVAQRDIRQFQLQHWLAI
Structure (SMILES),EC50,inhibition at 1 µM
"CNC[C@@H](O)[C@H](c1cccc(F)c1)n1cc(-c2ccccc2OC(F)(F)F)c2ccccc21 [Example 34, (1S,2R)-1-(3-fluorophenyl)-3-(methylamino)-1-{3-[2-(trifluoromethoxy)phenyl]-1H-indol-1-yl}propan-2-ol hydrochloride]",327 nM,–
"CNC[C@@H](O)[C@H](c1cccc(F)c1)n1cc(-c2ccccc2OC(C)C)c2ccccc21 [Example 35, (1S,2R)-1-(3-fluorophenyl)-3-(methylamino)-1-{3-[2-(isopropoxy)phenyl]-1H-indol-1-yl}propan-2-ol hydrochloride]",169 nM,–
"CNC[C@@H](O)[C@H](c1cccc(F)c1)n1cc(-c2ccc(F)cc2)c2ccccc21 [Example 36, (1S,2R)-1-(3-fluorophenyl)-1-[3-(4-fluorophenyl)-1H-indol-1-yl]-3-(methylamino)propan-2-ol hydrochloride]",711 nM,–
"CNC[C@@H](O)[C@H](c1cccc(F)c1)n1cc(-c2ccccc2Oc2ccccc2)c2ccccc21 [Example 37, (1S,2R)-1-(3-fluorophenyl)-3-(methylamino)-1-[3-(2-phenoxyphenyl)-1H-indol-1-yl]propan-2-ol hydrochloride]",–,26%
"CNC[C@@H](O)[C@H](c1cccc(F)c1)n1cc(-c2ccc(F)cc2F)c2ccccc21 [Example 38, (1S,2R)-1-[3-(2,4-difluorophenyl)-1H-indol-1-yl]-1-(3-fluorophenyl)-3-(methylamino)propan-2-ol hydrochloride]",135 nM,–
"CNC[C@@H](O)[C@H](c1cccc(F)c1)n1cc(-c2cc(F)ccc2F)c2ccccc21 [Example 39, (1S,2R)-1-[3-(2,5-difluorophenyl)-1H-indol-1-yl]-1-(3-fluorophenyl)-3-(methylamino)propan-2-ol hydrochloride]",70 nM,–
"CNC[C@@H](O)[C@H](c1cccc(F)c1)n1cc(-c2cccc(OC)c2OC)c2ccccc21 [Example 40, (1S,2R)-1-[3-(2,3-dimethoxyphenyl)-1H-indol-1-yl]-1-(3-fluorophenyl)-3-(methylamino)propan-2-ol hydrochloride]",41 nM,–
"CNC[C@@H](O)[C@H](c1cccc(F)c1)n1cc(-c2ccc(Cl)cc2Cl)c2ccccc21 [Example 41, (1S,2R)-1-[3-(2,4-dichlorophenyl)-1H-indol-1-yl]-1-(3-fluorophenyl)-3-(methylamino)propan-2-ol hydrochloride]",193 nM,–
"CCOc1ccccc1-c1cn([C@@H](c2cccc(F)c2)[C@H](O)CNC)c2ccccc12 [Example 42, (1S,2R)-1-[3-(2-ethoxyphenyl)-1H-indol-1-yl]-1-(3-fluorophenyl)-3-(methylamino)propan-2-ol hydrochloride]",71 nM,–
"CNC[C@@H](O)[C@H](c1cccc(F)c1)n1ccc2cc(OC)nc(Cl)c21 [Example 43, (1S,2R)-1-(7-chloro-5-methoxy-1H-pyrrolo[2,3-c]pyridin-1-yl)-1-(3-fluorophenyl)-3-(methylamino)propan-2-ol hydrochloride]",299 nM,–
"CNC[C@@H](O)[C@H](c1ccccc1)n1ccc2cc(C)nc(Cl)c21 [Example 44, (1S,2R)-1-(7-chloro-5-methyl-1H-pyrrolo[2,3-c]pyridin-1-yl)-3-(methylamino)-1-phenylpropan-2-ol hydrochloride]",416 nM,–
"CNC[C@@H](O)[C@H](c1ccccc1)n1ccc2cc(OC)ncc21 [Example 45, (1S,2R)-1-(5-methoxy-1H-pyrrolo[2,3-c]pyridin-1-yl)-3-(methylamino)-1-phenylpropan-2-ol hydrochloride]",–,43%
"CNC[C@@H](O)[C@H](c1cccc(F)c1)n1ccc2cc(OC)ncc21 [Example 46, (1S,2R)-1-(3-fluorophenyl)-1-(5-methoxy-1H-pyrrolo[2,3-c]pyridin-1-yl)-3-(methylamino)propan-2-ol hydrochloride]",–,46%
"CNC[C@@H](O)[C@H](c1ccccc1)n1ccc2cc(C)ncc21 [Example 47, (1S,2R)-3-(methylamino)-1-(5-methyl-1H-pyrrolo[2.3-c]pyridin-1-yl)-1-phenylpropan-2-ol hydrochloride]",–,35%
"CNC[C@@H](O)[C@H](c1cccc(F)c1)n1ccc2cc(C)ncc21 [Example 48, (1S,2R)-1-(3-fluorophenyl)-3-(methylamino)-1-(5-methyl-1H-pyrrolo[2,3-c]pyridin-1-yl)propan-2-ol hydrochloride]",–,51%
"CNC[C@@H](O)[C@H](c1ccccc1)n1ccc2ccnc(C)c21 [Example 49, (1S,2R)-3-(methylamino)-1-(7-methyl-1H-pyrrolo[2,3-c]pyridin-1-yl)-1-phenylpropan-2-ol hydrochloride]",–,51%
"CNC[C@@H](O)[C@H](c1cccc(F)c1)n1ccc2ccnc(C)c21 [Example 50, (1S,2R)-1-(3-fluorophenyl)-3-(methylamino)-1-(7-methyl-1H-pyrrolo[2,3-c]pyridin-1-yl)propan-2-ol hydrochloride]",521 nM,–
"CNC[C@@H](O)[C@H](c1cccc(F)c1)N1CCN(Cc2ccccc2)c2ccccc21 [Example 53, (1S,2R)-1-(4-benzyl-3,4-dihydroquinoxalin-1(2H)-yl)-1-(3-fluorophenyl)-3-(methylamino)propan-2-ol hydrochloride]",–,49%
"CCC1CN([C@@H](c2ccccc2)[C@H](O)CNC)c2ccccc21 (stereo partly drawn) [Example 59, (1S,2R)-1-(3-ethyl-2,3-dihydro-1H-indol-1-yl)-3-(methylamino)-1-phenylpropan-2-ol hydrochloride]",16 nM,–
"CNC[C@@H](O)[C@H](c1ccccc1)N1CC(C(C)C)c2ccccc21 (stereo partly drawn) [Example 60, (1S,2R)-1-(3-isopropyl-2,3-dihydro-1H-indol-1-yl)-3-(methylamino)-1-phenylpropan-2-ol hydrochloride]",67 nM,–
"CC1(C)CN([C@@H](c2cc(F)cc(F)c2)[C@H](O)CN)c2ccccc21 [Example 61, (1S,2R)-3-amino-1-(3,5-difluorophenyl)-1-(3,3-dimethyl-2,3-dihydro-1H-indol-1-yl)propan-2-ol hydrochloride]",216 nM,–
"CNC[C@@H](O)[C@H](c1cc(F)cc(F)c1)N1C(=O)C(C)(C)c2cccc(F)c21 [Example 62, 1-[(1S,2R)-1-(3,5-difluorophenyl)-2-hydroxy-3-(methylamino)propyl]-7-fluoro-3,3-dimethyl-1,3-dihydro-2H-indol-2-one hydrochloride]",4 nM,–
"CNC[C@@H](O)[C@H](c1cccc(F)c1)N1C(=O)C(C)(C)c2cc(F)cc(F)c21 [Example 63, 5,7-difluoro-1-[(1S,2R)-1-(3-fluorophenyl)-2-hydroxy-3-(methylamino)propyl]-3,3-dimethyl-1,3-dihydro-2H-indol-2-one hydrochloride]",51 nM,–
"CNC[C@@H](O)[C@H](c1cc(F)cc(F)c1)N1C(=O)C(C)(C)c2ccccc21 [Example 64, 1-[(1S,2R)-1-(3,5-difluorophenyl)-2-hydroxy-3-(methylamino)propyl]-3,3-dimethyl-1,3-dihydro-2H-indol-2-one hydrochloride]",20 nM,–
"CNC[C@@H](O)[C@H](c1ccccc1)n1ccc2cc(O)ccc21 [Example 65, 1-[(1S,2R)-2-hydroxy-3-(methylamino)-1-phenylpropyl]-1H-indol-5-ol hydrochloride]",55 nM,–
"CNC[C@@H](O)[C@H](c1cccc(F)c1)n1ccc2cc(O)ccc21 [Example 66, 1-[(1S,2R)-1-(3-fluorophenyl)-2-hydroxy-3-(methylamino)propyl]-1H-indol-5-ol hydrochloride]",3 nM,–
"CNC[C@@H](O)[C@H](c1ccccc1)N1C(=O)C2(CCCCC2)c2cc(OCc3ccccc3)ccc21 [Example 67, 5′-(benzyloxy)-1′-[(1S,2R)-2-hydroxy-3-(methylamino)-1-phenylpropyl]spiro[cyclohexane-1,3′-indol]-2′(1′H)-one hydrochloride]",839 nM,–
"CNC[C@@H](O)[C@H](c1ccccc1)N1C(=O)C(C)(C)c2cc(OCc3ccccc3)ccc21 [Example 68, 5-benzyloxy-1-[(1S,2R)-2-hydroxy-3-(methylamino)-1-phenylpropyl]-3,3-dimethyl-1,3-dihydro-2H-indol-2-one hydrochloride]",240 nM,–
"CNC[C@@H](O)[C@H](c1cccc(Cl)c1)N1C(=O)C(C)(C)c2cccc(F)c21 [Example 69, 1-[(1S,2R)-1-(3-chlorophenyl)-2-hydroxy-3-(methylamino)propyl]-7-fluoro-3,3-dimethyl-1,3-dihydro-2H-indol-2-one hydrochloride]",92 nM,–
